Data published in paper PMC10398685 (ACS Omega, 2023).

Tests used:
[1] = Steady-state intracellular uptake in Calu-3 cells; assay type: in vitro ADME; details: human, Calu-3 cells; Calu-3, 60 min incubation, 50 μM at t = 0; read-out: Kp (intracellular accumulation ratio IC/EC) (converted)
Source text: (§1) While an enzymatic MTase assay represents a valuable fast screening platform providing the information that can be directly used for SAR analyses, it is not fully predictive for the compounds’ activity in whole cells. In order to verify the ability of the compounds to reach the intracellular compartment, we measured the steady-state accumulation of representative compounds in intact CCRF-CEM, VERO-E6, and Calu-3 cells (Tables 3 and S2). […] Compound 12q was almost completely cleared from the medium after 60 min incubation with the cells rendering it among the most permeable compounds of the series based on Kp values. It should be noted that the apparent intracellular concentration of the compounds may be biased by their potential metabolism. Therefore, we decided to subject the selected derivatives to in vitro stability studies. […]
(§2) methyltransferase activity as counts per minute (CPM). The CPM measurements in the absence of compound (5% DMSO) for each enzyme was defined as 100% activity.
(§3) 3.3. Intracellular Uptake
(§4) Steady-state cellular uptake was measured in CCRF-CEM cells (ATCC, CRL-119), VERO-E6 cells (ATCC, CRL-1586) and Calu-3 cells (HTB-55), respectively. Suspension cells (CCRF-CEM) were treated as follows: Prior to the experiment, cells were washed by centrifugation (250 x g, 5 min) in prewarmed (37 °C) serum-free RPMI medium and resuspended in the same vehicle to a concentration of 2 x 10^7 cells per mL. The cell suspension was distributed into the microtubes in 500 μL aliquots (10^7 cells), and the uptake process was initiated by the addition of 2.5 μL of the 10 mM DMSO solutions of the compounds (50 μM final conc.). Samples were incubated for 60 min at 37 °C in a CO 2 incubator using a rotary stirrer. The uptake was terminated by centrifugation at 900 x g for 5 min, at +4 °C. The medium was stored at −20 °C for later analysis of the extracellular concentration of the compounds. The cells were washed two times with 1 mL PBS (900 x g, 5 min, +4 °C), and also stored at −20 °C for subsequent analysis of the intracellular concentration of the compounds. At the day of the analysis, both media and the pelleted cells were quickly thawed. The cell pellets were extracted with 200 μL of ice-cold methanol by vigorous shaking, further diluted 1:1 with water and centrifuged at 20 000 x g for 10 min. As for the media samples, 10 μL aliquots were extracted with 990 μL of 50% methanol. The samples were then transferred to ECHO® -compatible 384-well plates and the amount of analytes were quantified by the ECHO -MS® System (Sciex) where acoustic droplet ejection module is coupled with Sciex 6500® triple quadrupole mass spectrometer operating with an electrospray ionization source. Spectrometer was run in the multiple reaction monitoring (MRM) mode. When necessary, the processed samples were further diluted in 50% methanol to fit in the calibration range. Calibration curves of the compounds in 50% methanol were measured alongside the samples within the same run. The ra tio between the total compound concentration in the cells and compound concentration in the medium (K p) at t=60 min was calculated according to: Kp = (Acell / Vcell) / Cmedium, where Acell is the amount of compound in the cell lysate, Vcell is the CCRF-CEM cell volume (3.38 μL/10^7 cells)16 and Cmedium is the compound concentration in the medium sample after correcting for sample dilution. Experiments were performed in duplicates.
(§5) For adherent cells (Vero E6 and Calu-3), the workflow was modified as follows: Cells were seeded on 6-well plates at a concentration of […] and 8.2 x 10^5 cells/well for Vero E6 and Calu-3, respectively, in 3 mL of serum-free culture media. The cells were left to attach overnight, the medium was then aspirated and replenished with 2 mL of fresh media containing the compounds (50 µM final conc). After 60 min at 37 °C the media was aspirated and the cells were washed twice with 1 mL of PBS. Then, 1 mL of fresh PBS was added and the cells were […]

Calu-3 cells = assay: Steady-state intracellular uptake in Calu-3 cells; assay type: in vitro ADME; details: Calu-3, 60 min incubation, 50 μM at t = 0
Source text: as §1, §2, §3, §4, §5

[2] = Caco-2 permeability assay; assay type: in vitro ADME; details: human; for recovery at 3 h, 5 µM / Papp A→B at 3 h, 5 µM / Papp B→A at 3 h, 5 µM: Caco-2, 5 µM; for Papp A→B at 3 h, 5 µM / Papp B→A at 3 h, 5 µM: pH 7.4/7.4, 3 h; for efflux ratio at 3 h, 5 µM: Caco-2, (Papp B-A)/(Papp A-B)
Description: (§6) 3.6. Caco-2 permeability assay
(§7) Transepithelial bi-directional transport of tested compounds (5 µM, pH 7.4/7.4) across the Caco-2 monolayers was studied using the BD BioCoat HTS Caco -2 assay system (BD Biosciences, Bedford, MA) as described in detail elsewhere.17 Aliquots were collected from the donor and acceptor compartment at the end of transport period (3 h), integrity of monolayers were verified using Lucifer Yellow dye and the compounds were quantified using LC-MS/MS (Sciex 6500® triple quadrupole). The apparent permeability coefficient (Papp) was calculated from the following equation: Papp = (dQ / dt) / C0 * A, where dQ/dt is the rate of absorption of the drug across the cells, C0 is the donor compartment concentration at time zero, and A is the area of the monolayer. Efflux ratio was expressed as (Papp B-A) / (Papp A-B). Recovery (%) was determined as (total compound mass in donor and receiver compartments at the end of the incubation / initial compound mass in the donor compartment) x 100.

[3] = molecular target: T1, SARS-CoV-2 nsp10-nsp16 complex (Severe acute respiratory syndrome coronavirus 2, UniProt P0DTD1); assay type: biochemical; details: tested at 1 μM by SPA assay, duplicate
T1 construct: Nsp10-nsp16 reactions contained 100 nM nsp10-nsp16 complex

[4] = test system: 6 human methyltransferases (PRMT6, SUV39H1, SUV39H2, SETDB1, SETD7, and MLL1); assay type: biochemical; details: tested at 1 μM by SPA assay, duplicate
Caco-2 monolayers = assay: Caco-2 permeability assay; assay type: in vitro ADME; details: Caco-2, 5 µM, pH 7.4/7.4, 3 h
Description: as §6, §7

| SMILES | Kp at 1 h, 50 µM [1] | EC (extracellular concentration in the media at t = 60 min) ± sd (Calu-3 cells) [µM] | recovery at 3 h, 5 µM [2] [%] | Papp A→B at 3 h, 5 µM [2] [nm/s] | Papp B→A at 3 h, 5 µM [2] [nm/s] | efflux ratio at 3 h, 5 µM [2] | Selectivity against SARS-CoV-2 nsp10-nsp16 complex [3] | Selectivity against 6 human methyltransferases [4] | IC (intracellular concentration in the cells at t = 60 min) ± sd (Calu-3 cells) | Papp B-A (Caco-2 monolayers) |
| --- | --- | --- | --- | --- | --- | --- | --- | --- | --- | --- |
| CCN(C[C@H]1O[C@@H](n2cc(C#Cc3cnc4ccccc4c3)c3c(N)ncnc32)[C@H](O)[C@@H]1O)S(=O)(=O)c1ccc(OC)c(C#N)c1 [Compound 12e] | 1770 | 5 ± 4 |  |  |  |  |  |  |  |  |
| CCN(C[C@H]1O[C@@H](n2cc(C#Cc3cccnc3)c3c(N)ncnc32)[C@H](O)[C@@H]1O)S(=O)(=O)c1ccc(OC)c(C#N)c1 [Compound 12l] |  |  | 17 | 1 | 1 | 0.9 |  |  |  |  |
| COc1ccc(S(=O)(=O)N(C)C[C@H]2O[C@@H](n3cc(C#Cc4cnc5ccccc5c4)c4c(N)ncnc43)[C@H](O)[C@@H]2O)cc1C#N [Compound 12q] |  | 5.6 ± 5.7 | 4 | 2 |  | 0.4 | selective | selective | 89,640 ± 6514 μM | 0.0 ± 0.0 x10-6 (cm/s) |
| COc1ccc(S(=O)(=O)N(C)C[C@H]2O[C@@H](n3cc(C#Cc4ccc(C(N)=O)cc4)c4c(N)ncnc43)[C@H](O)[C@@H]2O)cc1C#N [Compound 12r] | 1250 | 4.0 ± 0.2 | 1 | 1 ± 1 | 1 | 0.1 | selective | selective |  |  |
| COc1ccc(S(=O)(=O)N(C)C[C@H]2O[C@@H](n3cc(C#Cc4cccnc4)c4c(N)ncnc43)[C@H](O)[C@@H]2O)cc1C#N [Compound 12s] | 106 | 14.7 ± 0.8 | 3 | 4 ± 3 | 3 ± 1 | 1.3 | selective | selective |  |  |
